The source of these data is patent publication US8754047B2, “Peptide compositions and methods of use” (The Research Foundation for the State University of New York, priority 2008, dated 2014).

“Also recorded” adds a separate entry of the source. Positions of bridges follow the written chain, without caps; N, C: chain ends. Residues, ends and D or L forms follow the SMILES beside them.

For assay [1], the system named is MCF-7 human breast cancer cells. Kind of assay: Annexin V-FITC flow cytometry for apoptotic cells, MCF7. It is filed as cell-based. The following applies: 24 hrs, 0 μM to 200 μM. On the procedure:
SW480 human colon cancer cells and MCF7 breast cancer cells were grown following the instructions of American Type Culture Collection (ATCC, Monassas, Va.). The cells were treated with the test peptides (YJB01, YJB05, or YJB06) for 24 hrs at concentrations ranging from 0 μM, to 200 μM. After treatment, cells were trypsinized and stained with Annexin V-FITC (100× dilution) for 15 minutes. Annexin V-FITC fluorescence intensities were analyzed by FACSCaliber (BD Bioscience) following standard protocols. Annexin V (+) cells are apoptotic cells.
When cells undergo apoptosis, the inner membrane phospholipid, phosphotidylserine (PS), flips to the outer membrane and can be recognized by the […]. The green FITC fluorescence can be determined by flow cytometry and thus Annexin V (+) cells are apoptotic cells.
In this study, SW480 human cancer cells and MCF7 breast cancer cells were grown following the instructions of American Type Culture Collection (ATCC, Monassas, Va.). The cells were treated with the test peptides (YJB01, YJB05, or YJB06) for 24 hrs at concentrations ranging from 0 μM, to 200 μM. After treatment cells were trypsinized and stained with Annexin V-FITC (100× dilution) for 15 minutes. Annexin V-FITC fluorescence intensities were analyzed by FACSCaliber (BD Bioscience) following standard protocols.
Background: In flow cytometry, cells or beads pass a laser one at a time.

Assay [2] relates to peroxiredoxin 1. Kind of assay: Oxidized peroxiredoxin 1 (Prx-O3) immunoblot in SW480 cells. The class given is cell-based, human. The settings on record: 1 h, YJB01 20 μM and 100 μM, YJB05 100 μM. On the procedure: The oxidized peroxiredoxin 1 (sulphonic-peroxiredoxin, Prx-O3) was detected by using the specific anti-Prx-O3 antibody. Briefly, after SW480 cells were treated with either no peptide, with YBJ01 (at 20 μM and 100 μM), or with YJB05 (at 100 μM) for 1 h, total cell lysates were collected and separated on the SDS-PAGE gel. The gel was electroblotted onto a nitrocellulose membrane and probed with anti-Prx-O3, followed by HRP-conjugated secondary antibody. Bands corresponding to sulphonic-peroxiredoxin were visualized by ECL
The oxidized peroxiredoxin 1 (sulphonic-peroxiredoxin, Prx-O3) was detected by using the specific anti-Prx-O3 antibody Briefly, after SW480 cells were treated with either no peptide, with YBJ01 (at 20 μM and 100 μM), or with YBJ05 (at 100 μM) for 1 h, total cell lysates were collected and separated on the SDS-PAGE gel. The gel was electroblotted onto a nitrocellulose membrane and probed with anti-Prx-O3, followed by HRP-conjugated secondary antibody. Bands corresponding to sulphonic-peroxiredoxin were visualized by ECL
A general note: In western blotting, separated proteins are transferred to a membrane and probed.

For `CC[C@H](C)[C@H](NC(=O)[C@H](CCCCN)NC(=O)[C@@H](NC(=O)[C@H](CCC(N)=O)NC(=O)[C@H](CCCNC(=N)N)NC(=O)[C@@H]1CCCN1C(=O)[C@H](CCCCN)NC(=O)[C@@H]1CSSC[C@H](NC(=O)[C@H](Cc2c[nH]c3ccccc23)NC(=O)[C@@H](NC(=O)[C@H](C)N)[C@@H](C)O)C(=O)NCC(=O)N2CCC[C@H]2C(=O)N1)[C@@H](C)CC)C(=O)N[C@@H](Cc1c[nH]c2ccccc12)C(=O)N[C@@H](Cc1ccccc1)C(=O)N[C@@H](CCC(N)=O)C(=O)N[C@@H](CC(N)=O)C(=O)N[C@@H](CCCNC(=N)N)C(=O)N[C@@H](CCCNC(=N)N)C(=O)N[C@@H](CCSC)C(=O)N[C@@H](CCCCN)C(=O)N[C@@H](Cc1c[nH]c2ccccc12)C(=O)N[C@@H](CCCCN)C(=O)N[C@@H](CCCCN)C(=O)O` [YJB01] (H-ATWCGPCKPRQIKIWFQNRRMKWKK-OH; disulfide 4-7; N-terminus and C-terminus assumed), in assay [1], the “apoptosis, Annexin V (+) cells, MCF7” value is reported as “cell killing effect”. Moreover, the “induction of the oxidized form of peroxiredoxin 1” value in assay [2] was “induced the oxidized form of peroxiredoxin; also recorded: capable of inducing oxidation”.
